# Measured values taken from publication PMC10938783, “A novel pan-PI3K inhibitor KTC1101 synergizes with anti-PD-1 therapy by targeting tumor suppression and immune activation” (Molecular Cancer, 2024).
# Like-named read-outs stand apart in the source and are kept apart here.
# Legend:
# [1] = Liver microsome metabolic stability assay; conditions: mouse, liver microsomes
# CCL5 and CXCL10 = experiment: qRT-PCR and ELISA of chemokines in B16 cells; assay type: cell-based, mouse; conditions: 48 h
# Procedure: qRT-PCR was performed as previously described. RNA was isolated using Trizol and used to synthesize complementary DNA (cDNA) using a cDNA Synthesis Kit (GenStar), and RT-PCR was performed with aliquots of cDNA samples mixed with SYBR Green MasterMix (Applied Biosystems). Reactions were performed in triplicate.
# We examined the secreted cytokines from B16 cells under both in vitro and in vivo conditions. For in vitro-cultured B16 cells, the cells were seeded into six-well plates and treated with either DMSO or a range of KTC1101 concentrations. After 48 h, the total cell count was determined, and the cell culture supernatant was collected for further analysis. For in vivo tumor tissues, the harvested tumor tissues were homogenized. Post-centrifugation, the supernatant was collected and used for protein quantification utilizing a BCA kit. The concentrations of murine CCL5 and CXCL10 in these supernatants were then quantified using specific ELISA kits, in accordance with the manufacturer's instructions.
# CD8^+ T cells = experiment: T cell suppression assay (CFSE); assay type: cell-based; conditions: Mus musculus, 72 h, read-out: IC50 proliferation
# Procedure: (§1) Spleens from naive mice were isolated and ground through 70-μm filters to generate a single-cell suspension. After RBC lysis, single-cell suspensions were stained with CD3, CD8, CD4, CD25 or CD127 antibodies. Viable CD8^+ T cells (CD3^+CD8^+), CD4^+ T cells (CD3^+CD4^+), and Tregs (CD3^+CD4^+CD25^+CD127^low/−) from single-cell suspensions were sorted by FACS. Then T cells were labelled with […] in pre-warmed PBS for 10 min at 37 °C. The CFSE-labelled T cells were seeded in 96-well plates pre-coated with 10 μg/mL CD3 and 1 μg/mL CD28 antibodies and cultured in 1640 media with 10% FBS, 1 mM Sodium Pyruvate (Thermo, 11,360,070), 50 μM β-ME and 100 IU/mL IL2, as well as different concentrations of KTC1101 or solvent control. After 72 h, cells were harvested and the CFSE signal was measured by flow cytometry. Cell growth rate was calculated by the percentage of live, proliferated cell number at each drug concentration vs. solvent control.
# CD4^+ T cells = experiment: T cell suppression assay (CFSE); assay type: cell-based; conditions: Mus musculus, 72 h, read-out: IC50 proliferation
# Procedure: as §1
# [2] = tested on: JFCR39 panel of 39 human tumor cell lines; experiment: JFCR39 panel growth inhibition, panel statistics; assay type: cell-based; conditions: for GI50: Homo sapiens
# Procedure: JFCR39 drug discovery system was used to measure the growth inhibitory activities and identify the target of KTC1101. The JFCR39 panel consists of 39 cell lines seeded in 96-well plates. After 48-h treatment with KTC1101, cell growth was measured using the sulforhodamine B assay. […] The deviation of log GI50 for each cell line from the average log GI50 across the JFCR39 panel was plotted as a fingerprint. MG-MID (mean of Log GI50 values) represents the average log GI50 for all 39 cell lines. The most sensitive and least sensitive cell lines were identified by calculating the difference in their log GI50 values (Range) and the difference between the most sensitive cell line and the average GI50 on the JFCR39 panel (Delta). The fingerprint of KTC1101 was compared with the fingerprints of reference compounds in the database. The Pearson correlation coefficient (r) was calculated (n = 39).
smiles,measurement,setting,value
"COc1cc(N)cc2c1nc(C(F)F)n2-c1nc(N2CCCOCC2)nc(N2CCOCC2)n1 [KTC1101, 2-(difluoromethyl)-4-methoxy-1-(4-morpholino-6-(1,4-oxazepan-4-yl)-1,3,5-triazin-2-yl)-1H-benzo[d]imidazol-6-amine]",half-life at 1 µM,[1],40.7 min
same,microsomal CLint at 1 µM,[1],34 µL/min/mg
same,expression levels of CCL5 and CXCL10,CCL5 and CXCL10,significantly stimulated
same,IC50,CD8^+ T cells,31.7 nM
same,IC50,CD4^+ T cells,16 nM
same,GI50,"[2]; JFCR39 panel, read-out: mean GI50 across all 39 cell lines",23.4 nM
same,GI50,"[2]; all 39 cell lines, read-out: MG-MID (mean of Log GI50 values) (converted)",23.4 nM
same,fold lower mean GI50 than Copanlisib,[2]; JFCR39 panel,5.7 fold
same,fold lower mean GI50 than ZSTK474,[2]; JFCR39 panel,13.7 fold
